Laboratory results from US5880119A, “Mercaptoacetylamino 1,3,4,5-tetrahydro-benzo(C)azepin-2-one disulfide derivatives useful as inhibitors of enkephalinase and ACE” (Merrell Pharmaceuticals Inc., priority 1997, dated 1999).

Molecular target: T1, ACE (Angiotensin-Converting Enzyme) of rat kidney preparations (Rattus norvegicus, UniProt P47820)
T1 construct: compound- or vehicle-dosed rat kidney preparations; from tissue; host or cells: kidney of male Sprague-Dawley rats
T1 sequence (P47820 36-1313): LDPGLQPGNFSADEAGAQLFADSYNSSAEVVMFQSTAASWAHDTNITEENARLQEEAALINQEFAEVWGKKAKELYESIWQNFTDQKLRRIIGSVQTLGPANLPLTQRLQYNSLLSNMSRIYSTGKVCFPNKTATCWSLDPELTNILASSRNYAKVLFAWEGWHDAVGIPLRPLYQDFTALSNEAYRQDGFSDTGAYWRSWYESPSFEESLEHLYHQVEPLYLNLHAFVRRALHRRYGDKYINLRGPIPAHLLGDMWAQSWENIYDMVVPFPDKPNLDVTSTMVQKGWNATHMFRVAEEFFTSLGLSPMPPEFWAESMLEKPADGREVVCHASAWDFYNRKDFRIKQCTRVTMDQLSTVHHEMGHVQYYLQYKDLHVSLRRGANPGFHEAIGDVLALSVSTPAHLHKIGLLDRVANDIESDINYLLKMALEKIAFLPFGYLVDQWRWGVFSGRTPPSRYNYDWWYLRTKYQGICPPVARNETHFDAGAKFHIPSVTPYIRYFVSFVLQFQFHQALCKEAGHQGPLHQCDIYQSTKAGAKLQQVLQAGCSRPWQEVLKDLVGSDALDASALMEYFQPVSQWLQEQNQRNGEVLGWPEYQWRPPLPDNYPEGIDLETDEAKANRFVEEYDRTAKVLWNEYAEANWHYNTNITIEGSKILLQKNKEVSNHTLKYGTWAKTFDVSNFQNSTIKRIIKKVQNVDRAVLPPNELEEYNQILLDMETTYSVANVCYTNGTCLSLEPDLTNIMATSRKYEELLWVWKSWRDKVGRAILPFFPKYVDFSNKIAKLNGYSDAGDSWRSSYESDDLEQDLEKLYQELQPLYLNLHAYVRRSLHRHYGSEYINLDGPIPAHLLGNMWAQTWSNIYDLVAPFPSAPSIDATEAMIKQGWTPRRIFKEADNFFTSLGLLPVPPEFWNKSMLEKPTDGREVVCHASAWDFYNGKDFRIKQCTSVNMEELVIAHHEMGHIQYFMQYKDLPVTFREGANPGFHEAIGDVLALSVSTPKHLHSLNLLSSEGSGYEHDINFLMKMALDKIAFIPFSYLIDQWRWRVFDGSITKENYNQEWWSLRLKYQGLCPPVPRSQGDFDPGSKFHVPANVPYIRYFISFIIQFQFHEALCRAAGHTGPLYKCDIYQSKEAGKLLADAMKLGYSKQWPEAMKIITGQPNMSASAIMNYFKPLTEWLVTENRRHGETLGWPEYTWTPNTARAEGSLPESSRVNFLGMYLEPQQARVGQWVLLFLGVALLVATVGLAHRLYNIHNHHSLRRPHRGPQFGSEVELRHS
Test: Radiometric ACE activity assay on rat kidney preparations
Format: biochemical, rat (Sprague-Dawley)
Settings: 1 μM enalaprilat; substrate tritiated hippuryl-glycyl-glycine; compound- or vehicle-dosed rat kidney preparations

inhibition of radioactive product formation: Complete inhibition
Compound: C[C@H](N[C@@H](CCc1ccccc1)C(=O)O)C(=O)N1CCC[C@H]1C(=O)O [enalaprilat]
